# Where “and” joins values, the source holds several entries; their conditions need not be identical. Identical values can stand only once.
# Columns and labels:
# [1] = tested on: SW48 xenografts; test: SW48 cell-derived xenograft efficacy, HRO761 orally once daily; assay type: in vivo, mouse
# Experimental: All animal studies were conducted in accordance with ethics and procedures covered by permit BS-2275 and BS-1975 issued by the Kantonales Veterinäramt Basel-Stadt and in strict adherence to guidelines of the Eidgenössisches Tierschutzgesetz and the Eidgenössische Tierschutzverordnung, Switzerland. All animal studies were approved by the internal ethics committee. All animals had access to food and water ad libitum and were identified with transponders. They were housed in a specific-pathogen-free facility in IVC racks under a 12 h–12 h light–dark cycle. To establish cell-line-derived xenograft models, 6–7-week-old female athymic nude (Crl:NU(NCr)-Foxn1^nu) or SCID-BEIGE (CB17.Cg-PrkdcscidLystbg-J/Crl) mice from Charles River were engrafted subcutaneously with 5 million tumour cells in HBSS (H6648, Sigma-Aldrich). For SNU-407, Lovo, IM95, RL95.2, Ishikawa and IGROV-1, the cells were concentrated in 50% Matrigel (354234, Corning). Patient-derived xenografts were induced and expanded by transplantation as previously described. […] For the efficacy experiment, mice were randomized into groups (n = 5–6) for a mean tumour size of 100–150 mm^3. […] Blood samples were collected on day 7 and 91. […] Tumour responses are reported with the measures of tumour volumes from the treatment start. […] Animals were randomized (n = 3) and tumour samples were collected at 0, 1, 4, 8 and 24 h on the first day and then collected 4 h after the last treatment on day 3, 8, 10, 14 (including a 24 h timepoint), 17 and 21. Tumours were excised, weighed, either frozen in liquid nitrogen and cryogenic dry pulverized with the CryoPrep system (model CP-02, Covaris) or processed to FFPE after fixation. […] On day 12, blood samples were collected for PK analysis. On the last day (3 h after the last treatment), tumours were excised, weighed, frozen in liquid nitrogen and cryogenic dry pulverized for PD analysis.
# [2] = tested on: LS411N; test: CFA 10-14 day clonogenic assay; assay type: cell-based; conditions: Homo sapiens, LS-411N
# [3] = tested on: Ishikawa; test: 4 day proliferation assay (CellTiter-Glo); conditions: Homo sapiens, 96 h, read-out: 4 day assay GI50
structure (smiles),measurement,setting,value
CCc1c(N2CCN(C(=O)c3ncnc(C)c3O)CC2)c(=O)n2nc(C3=CCOCC3)nc2n1CC(=O)Nc1ccc(C(F)(F)F)cc1Cl [HRO761],"TVol, individual mouse","[1]; HRO761 60mg/kg, day 14 post 1st dose, 60 mg/kg",168.86 mm3 and 112.65 mm3 and 68.51 mm3 and 225.46 mm3 and 143.2 mm3
same,Mean TVol,"[1]; HRO761 60mg/kg, day 17 post 1st dose",92.17 mm3
same,"TVol, individual mouse","[1]; HRO761 60mg/kg, day 17 post 1st dose, 60 mg/kg",122.04 mm3 and 68.7 mm3 and 47.51 mm3 and 127.77 mm3 and 94.82 mm3
same,Mean TVol,"[1]; HRO761 60mg/kg, day 21 post 1st dose",94.01 mm3
same,"TVol, individual mouse","[1]; HRO761 60mg/kg, day 21 post 1st dose, 60 mg/kg",102.4 mm3 and 77.05 mm3 and 73.43 mm3 and 131.39 mm3 and 85.79 mm3
same,Mean TVol,"[1]; HRO761 60mg/kg, day 24 post 1st dose",58.88 mm3
same,"TVol, individual mouse","[1]; HRO761 60mg/kg, day 24 post 1st dose, 60 mg/kg",71.44 mm3 and 52.46 mm3 and 38.57 mm3 and 82.39 mm3 and 49.52 mm3
same,Mean TVol,"[1]; HRO761 60mg/kg, day 28 post 1st dose",51.50 mm3
same,"TVol, individual mouse","[1]; HRO761 60mg/kg, day 28 post 1st dose, 60 mg/kg",56.2 mm3 and 60.49 mm3 and 22.48 mm3 and 76.24 mm3 and 42.11 mm3
same,Mean TVol,"[1]; HRO761 60mg/kg, day 31 post 1st dose",37.85 mm3
same,Mean TVol,"[1]; HRO761 60mg/kg, day 35 post 1st dose",35.63 mm3
same,Mean TVol,"[1]; HRO761 60mg/kg, day 38 post 1st dose",32.12 mm3
same,Mean TVol,"[1]; HRO761 60mg/kg, day 42 post 1st dose",26.69 mm3
same,Mean TVol,"[1]; HRO761 60mg/kg, day 45 post 1st dose",28.41 mm3
same,Mean TVol,"[1]; HRO761 60mg/kg, day 49 post 1st dose",28.59 mm3
same,Mean TVol,"[1]; HRO761 60mg/kg, day 52 post 1st dose",39.66 mm3
same,Mean TVol,"[1]; HRO761 60mg/kg, day 56 post 1st dose",41.29 mm3
same,Mean TVol,"[1]; HRO761 60mg/kg, day 59 post 1st dose",58.21 mm3
same,Mean TVol,"[1]; HRO761 60mg/kg, day 63 post 1st dose",63.07 mm3
same,Mean TVol,"[1]; HRO761 60mg/kg, day 66 post 1st dose",73.43 mm3
same,Mean TVol,"[1]; HRO761 60mg/kg, day 70 post 1st dose",92.32 mm3
same,Mean TVol,"[1]; HRO761 60mg/kg, day 73 post 1st dose",100.10 mm3
same,Mean TVol,"[1]; HRO761 60mg/kg, day 76 post 1st dose",118.12 mm3
same,Mean TVol,"[1]; HRO761 60mg/kg, day 79 post 1st dose",144.54 mm3
same,Mean TVol,"[1]; HRO761 60mg/kg, day 83 post 1st dose",167.90 mm3
same,Mean TVol,"[1]; HRO761 60mg/kg, day 86 post 1st dose",197.43 mm3
same,Mean TVol,"[1]; HRO761 60mg/kg, day 90 post 1st dose",250.29 mm3
same,Mean TVol,"[1]; HRO761 60mg/kg, day 92 post 1st dose",257.93 mm3
same,Mean TVol,"[1]; HRO761 120mg/kg, day 0 post 1st dose",148.61 mm3
same,Mean TVol,"[1]; HRO761 120mg/kg, day 3 post 1st dose",165.08 mm3
same,Mean TVol,"[1]; HRO761 120mg/kg, day 7 post 1st dose",155.01 mm3
same,Mean TVol,"[1]; HRO761 120mg/kg, day 10 post 1st dose",143.90 mm3
same,Mean TVol,"[1]; HRO761 120mg/kg, day 14 post 1st dose",109.57 mm3
same,"TVol, individual mouse","[1]; HRO761 120mg/kg, day 14 post 1st dose, 120 mg/kg",89.55 mm3 and 116.21 mm3 and 96.68 mm3 and 110.56 mm3 and 134.85 mm3
same,Mean TVol,"[1]; HRO761 120mg/kg, day 17 post 1st dose",76.89 mm3
same,"TVol, individual mouse","[1]; HRO761 120mg/kg, day 17 post 1st dose, 120 mg/kg",65.99 mm3 and 76.61 mm3 and 69.65 mm3 and 76.31 mm3 and 95.9 mm3
same,Mean TVol,"[1]; HRO761 120mg/kg, day 21 post 1st dose",60.65 mm3
same,"TVol, individual mouse","[1]; HRO761 120mg/kg, day 21 post 1st dose, 120 mg/kg",36.03 mm3 and 67.66 mm3 and 49.83 mm3 and 57.7 mm3 and 92.01 mm3
same,Mean TVol,"[1]; HRO761 120mg/kg, day 24 post 1st dose",40.88 mm3
same,"TVol, individual mouse","[1]; HRO761 120mg/kg, day 24 post 1st dose, 120 mg/kg",38.27 mm3 and 45.09 mm3 and 38.11 mm3 and 31.94 mm3 and 50.97 mm3
same,Mean TVol,"[1]; HRO761 120mg/kg, day 28 post 1st dose",35.35 mm3
same,"TVol, individual mouse","[1]; HRO761 120mg/kg, day 28 post 1st dose, 120 mg/kg",32.65 mm3 and 37.62 mm3 and 34.55 mm3 and 23.01 mm3 and 48.93 mm3
same,Mean TVol,"[1]; HRO761 120mg/kg, day 31 post 1st dose",23.02 mm3
same,Mean TVol,"[1]; HRO761 120mg/kg, day 35 post 1st dose",18.60 mm3
same,Mean TVol,"[1]; HRO761 120mg/kg, day 38 post 1st dose",15.04 mm3
same,Mean TVol,"[1]; HRO761 120mg/kg, day 42 post 1st dose",15.24 mm3
same,Mean TVol,"[1]; HRO761 120mg/kg, day 45 post 1st dose",22.14 mm3
same,Mean TVol,"[1]; HRO761 120mg/kg, day 49 post 1st dose",17.54 mm3
same,Mean TVol,"[1]; HRO761 120mg/kg, day 52 post 1st dose",14.62 mm3
same,Mean TVol,"[1]; HRO761 120mg/kg, day 56 post 1st dose",23.36 mm3
same,Mean TVol,"[1]; HRO761 120mg/kg, day 59 post 1st dose",24.12 mm3
same,Mean TVol,"[1]; HRO761 120mg/kg, day 63 post 1st dose",25.71 mm3
same,Mean TVol,"[1]; HRO761 120mg/kg, day 66 post 1st dose",34.04 mm3
same,Mean TVol,"[1]; HRO761 120mg/kg, day 70 post 1st dose",39.42 mm3
same,Mean TVol,"[1]; HRO761 120mg/kg, day 73 post 1st dose",45.77 mm3
same,Mean TVol,"[1]; HRO761 120mg/kg, day 76 post 1st dose",45.68 mm3
same,Mean TVol,"[1]; HRO761 120mg/kg, day 79 post 1st dose",54.31 mm3
same,Mean TVol,"[1]; HRO761 120mg/kg, day 83 post 1st dose",66.91 mm3
same,Mean TVol,"[1]; HRO761 120mg/kg, day 86 post 1st dose",85.46 mm3
same,Mean TVol,"[1]; HRO761 120mg/kg, day 90 post 1st dose",91.43 mm3
same,Mean TVol,"[1]; HRO761 120mg/kg, day 92 post 1st dose",94.97 mm3
same,Best average response,"[1]; SW48, colorectal carcinoma, 60 or 120 mg/kg",-90
same,tumour regressions,"[1]; higher doses than 20 mg per kg, once daily oral, up to 60 days",75–90%
same,GI50,[2],0.03 µM
same,GI50,[3],0.228 µM
